Measured values reported in publication doi:10.1101/2020.05.05.079848v2 (biorxiv, 2020).

Columns and labels:
[1] = biological target: SARS-CoV-2 M^pro-N (N-terminal domain with the catalytic core) (Severe acute respiratory syndrome coronavirus 2, UniProt P0DTD1); format: binding; details: catalytic pocket, probably more than one site
[2] = biological target: SARS-CoV-2 M^pro (main protease, 3CL^pro), full-length (Severe acute respiratory syndrome coronavirus 2, UniProt P0DTD1); assay: fluorescent peptide cleavage assay, two doses; format: biochemical; details: unreliable; estimated from two doses; limited by low aqueous solubility

Row | Compound | 1H-15N HSQC chemical shift perturbation [1] | IC50 [2]
1 | O=C(O)c1cccnc1 [niacin] | niacin perturbs H41, G143, N51, and V186 | 
2 | CSc1nc2cc(Cl)c(Oc3cccc(Cl)c3Cl)cc2[nH]1 [triclabendazole] |  | ~ 70 μM
